Source: patent publication EP3771713A1 (priority 2019, dated 2021)
Entries after “also recorded” stand apart in the source; their conditions may differ.

Assays:
[1] = biological target: hBChE (Homo sapiens, UniProt P06276); test: biochemical; assay type: biochemical
[2] = biological target: eeAChE (Electrophorus electricus, UniProt O42275); test: biochemical; conditions: eeAChE from electric eel; read-out: IC50 AChE (eeAChE)
[3] = biological target: hAChE (Homo sapiens, UniProt P22303); test: biochemical; assay type: biochemical; conditions: hAChE recombinant expressed
Sequence of hAChE (P22303 32-614): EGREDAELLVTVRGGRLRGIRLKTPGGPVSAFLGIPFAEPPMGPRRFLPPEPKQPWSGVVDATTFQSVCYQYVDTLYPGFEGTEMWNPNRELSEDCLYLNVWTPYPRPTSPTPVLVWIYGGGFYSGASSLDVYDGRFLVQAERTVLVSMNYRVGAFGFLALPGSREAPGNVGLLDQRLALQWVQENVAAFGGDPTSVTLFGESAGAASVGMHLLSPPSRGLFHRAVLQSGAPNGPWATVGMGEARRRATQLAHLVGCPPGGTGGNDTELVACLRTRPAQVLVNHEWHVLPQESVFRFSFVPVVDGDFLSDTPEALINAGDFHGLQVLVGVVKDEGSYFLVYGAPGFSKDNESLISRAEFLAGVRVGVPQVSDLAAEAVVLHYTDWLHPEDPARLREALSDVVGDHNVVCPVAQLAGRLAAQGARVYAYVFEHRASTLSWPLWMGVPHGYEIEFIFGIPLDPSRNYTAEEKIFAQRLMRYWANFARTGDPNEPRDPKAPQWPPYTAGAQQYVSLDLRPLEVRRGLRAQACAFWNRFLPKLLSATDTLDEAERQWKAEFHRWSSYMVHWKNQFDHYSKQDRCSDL

[4] = biological target: T1, hCB1R (Homo sapiens, UniProt P21554); assay type: binding
T1 construct: expressed in transfected cells; host or cells: CHO cells stably expressing hCB1R
T1 sequence (P21554 whole entry): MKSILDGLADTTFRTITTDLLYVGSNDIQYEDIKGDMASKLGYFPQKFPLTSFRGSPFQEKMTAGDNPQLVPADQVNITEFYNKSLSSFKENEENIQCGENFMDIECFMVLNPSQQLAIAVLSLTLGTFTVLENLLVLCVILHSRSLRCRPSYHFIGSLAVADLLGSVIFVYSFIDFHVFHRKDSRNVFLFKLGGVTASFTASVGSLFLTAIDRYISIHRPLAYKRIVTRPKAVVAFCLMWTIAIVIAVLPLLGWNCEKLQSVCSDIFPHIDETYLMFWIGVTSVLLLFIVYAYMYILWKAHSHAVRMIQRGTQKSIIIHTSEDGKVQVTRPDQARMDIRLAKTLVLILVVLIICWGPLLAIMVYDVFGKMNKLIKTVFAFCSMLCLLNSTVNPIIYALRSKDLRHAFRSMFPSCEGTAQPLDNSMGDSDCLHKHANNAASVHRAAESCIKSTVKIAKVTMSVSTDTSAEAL

[5] = biological target: Aβ42 (Homo sapiens, UniProt P05067); test: Aβ42 self-aggregation, thioflavin-T fluorescence assay; assay type: biochemical
Sequence of Aβ42 (P05067 672-713): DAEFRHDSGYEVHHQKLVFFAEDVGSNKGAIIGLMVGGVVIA

[6] = biological target: hAChE-induced Aβ40 aggregation (Homo sapiens, UniProt P22303); test: biochemical; assay type: biochemical
Sequence of hAChE-induced Aβ40 aggregation (P22303 32-614): as the sequence (P22303 32-614) above

[7] = biological target: T2, hCB2R (Homo sapiens, UniProt P34972); assay type: cell-based
T2 construct: expressed in transfected cells; host or cells: HEK cells stably expressing hCB2R
T2 sequence (P34972 whole entry): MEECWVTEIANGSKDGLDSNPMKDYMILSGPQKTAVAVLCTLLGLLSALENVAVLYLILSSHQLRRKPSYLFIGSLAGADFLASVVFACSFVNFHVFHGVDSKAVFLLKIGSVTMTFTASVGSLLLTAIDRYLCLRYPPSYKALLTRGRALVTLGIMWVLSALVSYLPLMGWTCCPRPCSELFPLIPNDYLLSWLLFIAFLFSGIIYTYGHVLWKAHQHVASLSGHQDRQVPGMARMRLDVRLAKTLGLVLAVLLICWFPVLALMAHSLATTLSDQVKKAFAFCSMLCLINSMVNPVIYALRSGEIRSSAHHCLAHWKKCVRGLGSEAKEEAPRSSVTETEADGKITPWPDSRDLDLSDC

[8] = test system: murine microglial cell line N9; test: Microglia activation: LPS-activated N9 cells, M1/M2 markers (Griess reaction, western blot); assay type: cell-based
[9] = test system: HT-22 cells; assay type: cell-based, murine
[10] = test system: Aβ25-35-induced learning impairments in mice; conditions: mouse, ip
[11] = N9 cells, 100 ng/mL LPS, 1-5 µM compound, 24 h, M1 marker
[12] = N9 cells, 100 ng/mL LPS, 1-5 µM compound, 24 h, M2 marker

Sequence of hBChE (P06276 29-602): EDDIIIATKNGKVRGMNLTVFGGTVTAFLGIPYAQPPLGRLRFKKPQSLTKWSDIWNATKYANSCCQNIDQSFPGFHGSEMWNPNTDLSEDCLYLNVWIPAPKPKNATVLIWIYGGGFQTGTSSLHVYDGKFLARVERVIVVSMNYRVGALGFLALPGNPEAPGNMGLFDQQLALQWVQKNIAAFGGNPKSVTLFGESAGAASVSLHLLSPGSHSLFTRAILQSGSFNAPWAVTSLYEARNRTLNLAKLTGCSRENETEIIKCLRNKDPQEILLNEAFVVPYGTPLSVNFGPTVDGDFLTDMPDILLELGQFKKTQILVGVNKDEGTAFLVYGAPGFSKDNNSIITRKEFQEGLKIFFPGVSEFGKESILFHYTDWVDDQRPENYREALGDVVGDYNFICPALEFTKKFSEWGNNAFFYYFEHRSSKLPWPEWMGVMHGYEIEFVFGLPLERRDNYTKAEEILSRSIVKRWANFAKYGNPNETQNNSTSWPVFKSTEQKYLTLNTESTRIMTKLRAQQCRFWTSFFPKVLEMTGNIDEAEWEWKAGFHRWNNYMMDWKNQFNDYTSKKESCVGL
Sequence of eeAChE (O42275 24-633): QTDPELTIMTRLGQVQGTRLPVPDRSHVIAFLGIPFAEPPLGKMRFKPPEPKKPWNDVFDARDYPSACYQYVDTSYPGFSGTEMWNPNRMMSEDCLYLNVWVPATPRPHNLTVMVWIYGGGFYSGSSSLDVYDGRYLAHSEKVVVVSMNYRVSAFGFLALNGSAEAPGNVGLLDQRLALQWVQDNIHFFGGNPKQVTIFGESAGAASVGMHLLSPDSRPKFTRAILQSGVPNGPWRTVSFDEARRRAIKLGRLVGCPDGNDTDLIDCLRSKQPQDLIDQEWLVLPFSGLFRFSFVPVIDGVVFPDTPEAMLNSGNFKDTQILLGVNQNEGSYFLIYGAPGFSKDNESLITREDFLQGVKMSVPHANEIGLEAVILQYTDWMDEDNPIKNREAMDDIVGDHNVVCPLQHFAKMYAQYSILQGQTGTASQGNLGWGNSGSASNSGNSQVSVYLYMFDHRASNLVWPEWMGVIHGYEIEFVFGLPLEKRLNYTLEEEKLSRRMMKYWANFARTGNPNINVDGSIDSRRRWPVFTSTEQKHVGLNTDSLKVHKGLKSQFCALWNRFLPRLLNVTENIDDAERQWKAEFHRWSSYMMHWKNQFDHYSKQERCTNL

In the case of `CCOc1ccc(Cc2nc3cc(C(=O)N(CC)CC)ccc3n2CCCCCCNc2c3c(nc4ccccc24)CCCC3)cc1` [compound 3e, 2-(4-Ethoxybenzyl)-N,N-diethyl-1-(6-((1,2,3,4-tetrahydroacridin-9-yl)amino)hexyl)-1H-benzo[d]imidazole-5-carboxamide], the “inhibitory potency towards hBChE compared to tacrine” value ([1]; compared to tacrine) is reported as “increased inhibitory potency”, the IC50 ([1]; hBChE from human serum, means of at least three determinations, read-out: IC50 hBChE) is reported as 1.9 nM and the IC50 [2] is reported as 0.5 nM. For the same compound, the “pIC50 ± SD AChE (hAChE)” value [3] was 7.1 ± 0.1, the IC50 ([3]; read-out: IC50 AChE (hAChE)) was 86.1 nM and the “[^3H]CP 55,940 displ. @10 µM hCB1R” value [4] was 17%. The inhibition at 50 µM ([5]; 50 µM inhibitor and 50 µM Aβ42, mean ± SEM, read-out: % inhibition Aβ aggregation self-induced) was 81.5 ± 2%, the “inhibition of Aβ42 self-aggregation (in words)” value ([5]; 1/1 ratio with Aβ42) was “pronounced inhibition; also recorded: strongly inhibited” and the “inhibition of AChE-induced Aβ40 aggregation (in words)” value [6] was “pronounced inhibition; also recorded: significantly reduce”. The inhibition at 100 µM ([6]; [I] = 100 µM, Aβ40/hAChE ratio 100/1, mean ± SEM, read-out: % inhibition Aβ aggregation AChE-induced) was 62.9 ± 5.4%, the MIF gene expression [7] was “reduced” and the STAT-3 gene expression [7] was “reduced”. The “behavior at the hCB2R” value [7] was “maintained their agonist behavior”, the immunomodulatory effect ([8]; LPS-activated microglial cells) was “immunomodulatory effect” and the “NO release / nitrite accumulation” value ([8]; N9 cells, 100 ng/mL LPS, 1-5 µM compound, 24 h) was “reduced; also recorded: strongly reduces”. For the same compound, the IL1β release [8, 11] was “significantly decrease; also recorded: strongly reduces”, the iNOS expression [8, 11] was “significantly decrease; also recorded: strongly reduces” and the TGFβ2 expression [8, 12] was “not reduced; also recorded: no parallel change”. For the same compound, the TREM2 expression [8, 12] was “not reduced; also recorded: no parallel change”, the “neuroprotective behavior (in words)” value [9] was “low neuroprotective behavior; also recorded: showed neuroprotection” and the “dose that significantly prevented Aβ25-35-induced learning impairments” value ([10]; in vivo) was 0.3 mg/kg. For the same compound, the “most effective dose (completely prevented Aβ25-35 impairments in both tests)” value ([10]; in vivo) was 0.3 mg/kg and the “dose given for the high in vivo efficacy (conclusion)” value [10] was 0.1 mg/kg.
